Source: patent EP0848008A1, “Organotin compounds and compositions containing these compounds” (PHARMACHEMIE B.V., priority 1996, dated 1998)

Key:
Type in all cases: cell-based
MCF-7 = assay: In vitro anti-tumour cell growth inhibition (method of Skehan et al.), MCF-7; details: MCF-7, breast cancer; amount which inhibits 50% of the cell growth
Protocol: (§1) Compounds 1, 2 and 3 were tested in vitro. together with 2 reference compounds used clinically (carboplatin and cisplatin), against MCF-7 and EVSA-T, two breast cancers, WiDr, a colon cancer, IGROV, an ovarian cancer, M19MEL, a melanoma, A498, a renal cancer, and H226, a non small cell lung cancer. The tests were carried out according to the method of Skehan et al, Journal of the National Cancer Institute, 1990; 82: 1107-1112.

EVSA-T = assay: In vitro anti-tumour cell growth inhibition (method of Skehan et al.), EVSA-T; details: breast cancer, amount which inhibits 50% of the cell growth
Protocol: as §1

WiDr = assay: In vitro anti-tumour cell growth inhibition (method of Skehan et al.), WiDr; details: colon cancer, amount which inhibits 50% of the cell growth
Protocol: as §1

IGROV = assay: In vitro anti-tumour cell growth inhibition (method of Skehan et al.), IGROV; details: ovarian cancer, amount which inhibits 50% of the cell growth
Protocol: as §1

M19MEL = assay: In vitro anti-tumour cell growth inhibition (method of Skehan et al.), M19MEL; details: melanoma, amount which inhibits 50% of the cell growth
Protocol: as §1

A498 = assay: In vitro anti-tumour cell growth inhibition (method of Skehan et al.), A498; details: A498, renal cancer; amount which inhibits 50% of the cell growth
Protocol: as §1

H226 = assay: In vitro anti-tumour cell growth inhibition (method of Skehan et al.), H226; details: H226, non small cell lung cancer; amount which inhibits 50% of the cell growth
Protocol: as §1

Row | Compound | ID50 (MCF-7) [µg/mL] | ID50 (EVSA-T) [µg/mL] | ID50 (WiDr) [µg/mL] | ID50 (IGROV) [µg/mL] | ID50 (M19MEL) [µg/mL] | ID50 (A498) [µg/mL] | ID50 (H226) [µg/mL]
1 | N.N.O=C([O-])C1(C(=O)[O-])CCC1.[Pt+2] [Carboplatin, carboplatin, reference compound] | 10.5 | 4.5 | 3.5 | 2.4 | 5.5 | 18 | 25
2 | N.N.[Cl][Pt][Cl] [Cisplatin, cisplatin, reference compound] | 1.4 | 0.92 | 1.55 | 0.23 | 0.78 | 1.2 | 3.158
3 | CC1(C)OC(=O)CC1C(=O)[O-].CC1(C)OC(=O)CC1C(=O)[O-].CCC[CH2][Sn+2][CH2]CCC (centres unmarked) [Compound 1, Di-n-butyltin diterebate] | 0.027 | 0.025 | 0.134 | 0.018 | 0.061 | 0.061 | 0.104
4 | CC1(C)OC(=O)CC1C(=O)[O-].CCC[CH2][Sn+]([CH2]CCC)[CH2]CCC [Compound 2, tri-n-butyltin terebate] | 0.003 | <0.003 | 0.011 | 0.004 | 0.011 | 0.015 | 0.008
5 | CC1(C)OC(=O)CC1C(=O)[O-].c1cc[c]([Sn+]([c]2ccccc2)[c]2ccccc2)cc1 [Compound 3, triphenyltin terebate] | 0.017 | <0.003 | 0.017 | 0.019 | 0.042 | 0.042 | 0.039
